Results from patent US20050245399A1, “Pyrazole derivatives as herbicidal compositions containing them” (ISHIHARA SANGYO KAISHA, LTD., priority 2004, published 2005).

Test system: redroot pigweed (Amaranthus retroflexus L.): AMARE
Assay: Test Example 1 pre-emergence herbicidal activity, AMARE
Type: in vivo
Conditions: Rate 63 g a.i./ha, visually observed 20th to 23rd day after application
From the text: (§1) Upland field soil was put into a 1/170,000 ha pot, and seeds of various plants {1. barnyardgrass (Echinochloa crus-galli L.): ECHCG, 2. crabgrass (Digitaria sanguinalis L.): DIGSA, 3. green foxtail (Setaria viridis L.): SETVI, 4. redroot pigweed (Amaranthus retroflexus L.): AMARE, 5. prickly sida (Sida spinosa L.): SEDSP, 6. velvetleaf (Abutilon theophrasti): ABUTH, 7. common cocklebur (Xanthium strumarium L.): XANST, 8. rice (Oryza sativa L.): ORYSA, 9. wheat (Triticum aestivum L.): TRZAX, 10. corn (Zea mays L.): ZEAMX, 11. soybean (Glycine max Merr.): GLXMA} were sown. Then, one day after the sowing, a wettable powder or emulsifiable concentrate having the compound of the present invention formulated in accordance with a usual formulation method, was weighed so that the active ingredient would be a predetermined amount and diluted with water in an amount of 500 L/ha. The herbicide adjusted was applied by a small size sprayer for preemergence treatment. On the 20th to 23rd day after the application of the herbicide, the growth of the respective plants was visually observed, and the herbicidal effects were evaluated by growth controlling degrees (%) ranging from 0 (equivalent to the untreated control) to 100 (complete kill), whereby the results shown in Table 4, were obtained. Compound Nos. in Table 4 correspond to Compound Nos. in Table 1 and 2 given hereinbefore.

Row | Compound | Pre-emergence Herbicidal Activity AMARE (growth controlling degree) [%]
1 | COCCC(=O)Nc1c(OC)c(Cl)cc(F)c1-c1nn(C)c(OC(F)F)c1Cl [Compound 1-40] | 100
2 | COc1c(Cl)cc(F)c(-c2nn(C)c(OC(F)F)c2Cl)c1NC(=O)CCc1cccc(F)c1 [Compound 1-266] | 100
3 | COc1c(Cl)cc(F)c(-c2nn(C)c(OC(F)F)c2Cl)c1NC(=O)CCc1ccc(F)cc1 [Compound 1-267] | 100

Test system: wheat (Triticum aestivum L.): TRZAX
Assay: Test Example 1 pre-emergence herbicidal activity, TRZAX
Type: in vivo
Conditions: Rate 63 g a.i./ha, visually observed 20th to 23rd day after application
From the text: as §1

Row | Compound | Pre-emergence Herbicidal Activity TRZAX (growth controlling degree) [%]
4 | COCCC(=O)Nc1c(OC)c(Cl)cc(F)c1-c1nn(C)c(OC(F)F)c1Cl [Compound 1-40] | 60
5 | COc1c(Cl)cc(F)c(-c2nn(C)c(OC(F)F)c2Cl)c1NC(=O)CCc1cccc(F)c1 [Compound 1-266] | 40
6 | COc1c(Cl)cc(F)c(-c2nn(C)c(OC(F)F)c2Cl)c1NC(=O)CCc1ccc(F)cc1 [Compound 1-267] | 20

Test system: barnyardgrass (Echinochloa crus-galli L.), ECHCG
Assay: Test Example 2 post-emergence (foliage treatment) herbicidal activity, ECHCG
Type: in vivo
Conditions: 63 g a.i./ha
From the text: (§2) Upland field soil was put into a 1/170,000 ha pot, and seeds of various plants were sown. Then, when the plants reached predetermined leaf stages {1. barnyardgrass (Echinochloa crus-galli L.), ECHCG: 1.1-2.1 leaf stage, 2. crabgrass (Digitaria sanguinalis L.), DIGSA: 1.0-2.0 leaf stage, 3. green foxtail (Setaria viridis L.), SETVI: 1.0-2.2 leaf stage, 4. redroot pigweed (Amaranthus retroflexus L.), AMARE: 0.1-1.5 leaf stage, 5. prickly sida (Sida spinosa L.), SIDSP: 0.1-0.6 leaf stage, 6. velvetleaf (Abutilon theophrasti), ABUTH: 0.1-0.6 leaf stage, 7. common cocklebur (Xanthium strumarium L.), XANST: 0.1 leaf stage, 8. rice (Oryza sativa L.), ORYSA; 1.0-2 leaf stage, 9. wheat (Triticum aestivum L.), TRZAX: 2.3-3.5 leaf stage, 10. corn (Zea mays L.), ZEAMXN 2.1-2.6 leaf stage, 11. soybean (Glycine max Merr.), GLXMA: primary leaf stage}, a wettable powder or emulsifiable concentrate having the compound of the present invention formulated in accordance with a usual formulation method, was weighed so that the active ingredient would be a predetermined amount, and diluted with water in an amount of 500 L/ha. To the diluted solution, 0.1% (v/v) of an agricultural spreader was added. The herbicide adjusted was applied by a small size sprayer for foliage treatment. On the 20th to 23rd day after the application of the herbicide, the growth of the respective plants was visually observed, and the herbicidal effects were evaluated by growth controlling degrees (%) ranging from 0 (equivalent to the untreated control) to 100 (complete kill), whereby the results shown in Table 5, were obtained. Compound Nos. in Table 5 correspond to Compound Nos. in Table 1 and 2 given hereinbefore.

Row | Compound | growth controlling degree, ECHCO [%]
7 | COCCC(=O)Nc1c(OC)c(Cl)cc(F)c1-c1nn(C)c(OC(F)F)c1Cl [Compound 1-40] | 100

Test system: crabgrass (Digitaria sanguinalis L.): DIGSA
Assay: Test Example 1 pre-emergence herbicidal activity, DIGSA
Type: in vivo
Conditions: Rate 63 g a.i./ha, visually observed 20th to 23rd day after application
From the text: as §1

Row | Compound | Pre-emergence Herbicidal Activity DIGSP (growth controlling degree) [%]
8 | COCCC(=O)Nc1c(OC)c(Cl)cc(F)c1-c1nn(C)c(OC(F)F)c1Cl [Compound 1-40] | 100
9 | COc1c(Cl)cc(F)c(-c2nn(C)c(OC(F)F)c2Cl)c1NC(=O)CCc1cccc(F)c1 [Compound 1-266] | 100
10 | COc1c(Cl)cc(F)c(-c2nn(C)c(OC(F)F)c2Cl)c1NC(=O)CCc1ccc(F)cc1 [Compound 1-267] | 100

Test system: corn (Zea mays L.): ZEAMX
Assay: Test Example 1 pre-emergence herbicidal activity, ZEAMX
Type: in vivo
Conditions: Rate 63 g a.i./ha, visually observed 20th to 23rd day after application
From the text: as §1

Row | Compound | Pre-emergence Herbicidal Activity ZEAMX (growth controlling degree) [%]
11 | COCCC(=O)Nc1c(OC)c(Cl)cc(F)c1-c1nn(C)c(OC(F)F)c1Cl [Compound 1-40] | 60
12 | COc1c(Cl)cc(F)c(-c2nn(C)c(OC(F)F)c2Cl)c1NC(=O)CCc1cccc(F)c1 [Compound 1-266] | 0
13 | COc1c(Cl)cc(F)c(-c2nn(C)c(OC(F)F)c2Cl)c1NC(=O)CCc1ccc(F)cc1 [Compound 1-267] | 0

Test system: soybean (Glycine max Merr.), GLXMA
Assay: Test Example 2 post-emergence (foliage treatment) herbicidal activity, GLXMA
Type: in vivo
Conditions: 63 g a.i./ha
From the text: as §2

Row | Compound | growth controlling degree, GLXMA [%]
14 | COCCC(=O)Nc1c(OC)c(Cl)cc(F)c1-c1nn(C)c(OC(F)F)c1Cl [Compound 1-40] | 95

Test system: velvetleaf (Abutilon theophrasti): ABUTH
Assay: Test Example 1 pre-emergence herbicidal activity, ABUTH
Type: in vivo
Conditions: Rate 63 g a.i./ha, visually observed 20th to 23rd day after application
From the text: as §1

Row | Compound | Pre-emergence Herbicidal Activity ABUTH (growth controlling degree) [%]
15 | COCCC(=O)Nc1c(OC)c(Cl)cc(F)c1-c1nn(C)c(OC(F)F)c1Cl [Compound 1-40] | 100
16 | COc1c(Cl)cc(F)c(-c2nn(C)c(OC(F)F)c2Cl)c1NC(=O)CCc1cccc(F)c1 [Compound 1-266] | 50
17 | COc1c(Cl)cc(F)c(-c2nn(C)c(OC(F)F)c2Cl)c1NC(=O)CCc1ccc(F)cc1 [Compound 1-267] | 100

Test system: rice (Oryza sativa L.): ORYSA
Assay: Test Example 1 pre-emergence herbicidal activity, ORYSA
Type: in vivo
Conditions: Rate 63 g a.i./ha, visually observed 20th to 23rd day after application
From the text: as §1

Row | Compound | Pre-emergence Herbicidal Activity ORYSA (growth controlling degree) [%]
18 | COCCC(=O)Nc1c(OC)c(Cl)cc(F)c1-c1nn(C)c(OC(F)F)c1Cl [Compound 1-40] | 80
19 | COc1c(Cl)cc(F)c(-c2nn(C)c(OC(F)F)c2Cl)c1NC(=O)CCc1cccc(F)c1 [Compound 1-266] | 10
20 | COc1c(Cl)cc(F)c(-c2nn(C)c(OC(F)F)c2Cl)c1NC(=O)CCc1ccc(F)cc1 [Compound 1-267] | 30

Test system: barnyardgrass (Echinochloa crus-galli L.): ECHCG
Assay: Test Example 1 pre-emergence herbicidal activity, ECHCG
Type: in vivo
Conditions: Rate 63 g a.i./ha, visually observed 20th to 23rd day after application
From the text: as §1

Row | Compound | Pre-emergence Herbicidal Activity ECHCG (growth controlling degree) [%]
21 | COCCC(=O)Nc1c(OC)c(Cl)cc(F)c1-c1nn(C)c(OC(F)F)c1Cl [Compound 1-40] | 100
22 | COc1c(Cl)cc(F)c(-c2nn(C)c(OC(F)F)c2Cl)c1NC(=O)CCc1cccc(F)c1 [Compound 1-266] | 60
23 | COc1c(Cl)cc(F)c(-c2nn(C)c(OC(F)F)c2Cl)c1NC(=O)CCc1ccc(F)cc1 [Compound 1-267] | 70

Test system: velvetleaf (Abutilon theophrasti), ABUTH
Assay: Test Example 2 post-emergence (foliage treatment) herbicidal activity, ABUTH
Type: in vivo
Conditions: 63 g a.i./ha
From the text: as §2

Row | Compound | growth controlling degree, ABUTH [%]
24 | COCCC(=O)Nc1c(OC)c(Cl)cc(F)c1-c1nn(C)c(OC(F)F)c1Cl [Compound 1-40] | 100

Test system: prickly sida (Sida spinosa L.), SIDSP
Assay: Test Example 2 post-emergence (foliage treatment) herbicidal activity, SIDSP
Type: in vivo
Conditions: 63 g a.i./ha
From the text: as §2

Row | Compound | growth controlling degree, SIDSP [%]
25 | COCCC(=O)Nc1c(OC)c(Cl)cc(F)c1-c1nn(C)c(OC(F)F)c1Cl [Compound 1-40] | 100

Test system: prickly sida (Sida spinosa L.): SEDSP
Assay: Test Example 1 pre-emergence herbicidal activity, SIDSP
Type: in vivo
Conditions: Rate 63 g a.i./ha, visually observed 20th to 23rd day after application
From the text: as §1

Row | Compound | Pre-emergence Herbicidal Activity SIDSP (growth controlling degree) [%]
26 | COCCC(=O)Nc1c(OC)c(Cl)cc(F)c1-c1nn(C)c(OC(F)F)c1Cl [Compound 1-40] | 100
27 | COc1c(Cl)cc(F)c(-c2nn(C)c(OC(F)F)c2Cl)c1NC(=O)CCc1cccc(F)c1 [Compound 1-266] | 100
28 | COc1c(Cl)cc(F)c(-c2nn(C)c(OC(F)F)c2Cl)c1NC(=O)CCc1ccc(F)cc1 [Compound 1-267] | 80

Test system: crabgrass (Digitaria sanguinalis L.), DIGSA
Assay: Test Example 2 post-emergence (foliage treatment) herbicidal activity, DIGSA
Type: in vivo
Conditions: 63 g a.i./ha
From the text: as §2

Row | Compound | growth controlling degree, DIGSP [%]
29 | COCCC(=O)Nc1c(OC)c(Cl)cc(F)c1-c1nn(C)c(OC(F)F)c1Cl [Compound 1-40] | 80

Test system: green foxtail (Setaria viridis L.), SETVI
Assay: Test Example 2 post-emergence (foliage treatment) herbicidal activity, SETVI
Type: in vivo
Conditions: 63 g a.i./ha
From the text: as §2

Row | Compound | growth controlling degree, SETVI [%]
30 | COCCC(=O)Nc1c(OC)c(Cl)cc(F)c1-c1nn(C)c(OC(F)F)c1Cl [Compound 1-40] | 100

Test system: rice (Oryza sativa L.), ORYSA
Assay: Test Example 2 post-emergence (foliage treatment) herbicidal activity, ORYSA
Type: in vivo
Conditions: 63 g a.i./ha
From the text: as §2

Row | Compound | growth controlling degree, ORYSA [%]
31 | COCCC(=O)Nc1c(OC)c(Cl)cc(F)c1-c1nn(C)c(OC(F)F)c1Cl [Compound 1-40] | 100

Test system: corn (Zea mays L.), ZEAMX
Assay: Test Example 2 post-emergence (foliage treatment) herbicidal activity, ZEAMX
Type: in vivo
Conditions: 63 g a.i./ha
From the text: as §2

Row | Compound | growth controlling degree, ZEAMX [%]
32 | COCCC(=O)Nc1c(OC)c(Cl)cc(F)c1-c1nn(C)c(OC(F)F)c1Cl [Compound 1-40] | 70

Test system: soybean (Glycine max Merr.): GLXMA
Assay: Test Example 1 pre-emergence herbicidal activity, GLXMA
Type: in vivo
Conditions: Rate 63 g a.i./ha, visually observed 20th to 23rd day after application
From the text: as §1

Row | Compound | Pre-emergence Herbicidal Activity GLXMA (growth controlling degree) [%]
33 | COCCC(=O)Nc1c(OC)c(Cl)cc(F)c1-c1nn(C)c(OC(F)F)c1Cl [Compound 1-40] | 30
34 | COc1c(Cl)cc(F)c(-c2nn(C)c(OC(F)F)c2Cl)c1NC(=O)CCc1cccc(F)c1 [Compound 1-266] | 0
35 | COc1c(Cl)cc(F)c(-c2nn(C)c(OC(F)F)c2Cl)c1NC(=O)CCc1ccc(F)cc1 [Compound 1-267] | 0

Test system: green foxtail (Setaria viridis L.): SETVI
Assay: Test Example 1 pre-emergence herbicidal activity, SETVI
Type: in vivo
Conditions: Rate 63 g a.i./ha, visually observed 20th to 23rd day after application
From the text: as §1

Row | Compound | Pre-emergence Herbicidal Activity SETVI (growth controlling degree) [%]
36 | COCCC(=O)Nc1c(OC)c(Cl)cc(F)c1-c1nn(C)c(OC(F)F)c1Cl [Compound 1-40] | 100
37 | COc1c(Cl)cc(F)c(-c2nn(C)c(OC(F)F)c2Cl)c1NC(=O)CCc1cccc(F)c1 [Compound 1-266] | 80
38 | COc1c(Cl)cc(F)c(-c2nn(C)c(OC(F)F)c2Cl)c1NC(=O)CCc1ccc(F)cc1 [Compound 1-267] | 95

Test system: wheat (Triticum aestivum L.), TRZAX
Assay: Test Example 2 post-emergence (foliage treatment) herbicidal activity, TRZAX
Type: in vivo
Conditions: 63 g a.i./ha
From the text: as §2

Row | Compound | growth controlling degree, TRZAX [%]
39 | COCCC(=O)Nc1c(OC)c(Cl)cc(F)c1-c1nn(C)c(OC(F)F)c1Cl [Compound 1-40] | 50
